Structures can show the parent of a compound that is named as a salt. Where two headings read alike, the source gives them in different places.
Legend:
[1] = molecular target: T1, SARS-CoV-2 PLpro (nsp3 1564–1878) (Severe acute respiratory syndrome coronavirus 2, UniProt P0DTD1); assay: biochemical; parameters: FRET-quenched peptide (Pro3) cleavage by PLpro, 10 min pre-incubation, slope over 20 min, normalised to no-compound control; settings: read-out: % of control remaining
[2] = molecular target: T1, SARS-CoV-2 PLpro (nsp3 1564–1878); assay: biochemical; parameters: FRET-quenched peptide (Pro3) cleavage by PLpro, 10 min pre-incubation, slope over 20 min, normalised to no-compound control; settings: read-out: % of control remaining; remark: listed apart in the source

## c1ccc2c3c([nH]c2c1)[C@H]1[C@@H]2CC[C@@H]([C@@H]4CCCN[C@@H]42)N1CC3
[1]; Well no.=3163, low concentration screen
  remaining activity at 1.25 µM: 105%
[2]; Well no.=3163, high concentration screen
  remaining activity at 3.75 µM: 103%

## CC[C@H]1CN2CCc3cc(OC)c(OC)cc3[C@@H]2C[C@@H]1C[C@H]1NCCc2cc(OC)c(OC)cc21
[1]; Well no.=3424, low concentration screen
  remaining activity at 1.25 µM: 92.3%
[2]; Well no.=3424, high concentration screen
  remaining activity at 3.75 µM: 98%

## COc1ccc2cc3[n+](cc2c1OC)CCc1cc2c(cc1-3)OCO2
[1]; Well no.=3515, low concentration screen
  remaining activity at 1.25 µM: 93.4%
[2]; Well no.=3515, high concentration screen
  remaining activity at 3.75 µM: 92.9%

## NC(=O)COc1c(F)cc(SCCNS(=O)(=O)c2ccccc2)cc1F
[1]; Well no.=5925, low concentration screen
  remaining activity at 1.25 µM: 94.7%
[2]; Well no.=5925, high concentration screen
  remaining activity at 3.75 µM: 93.7%

## C[C@H]([C@H](O)CCC(C)(C)O)[C@H]1CC[C@@]2(O)C3=CC(=O)[C@@H]4C[C@@H](O)[C@@H](O)C[C@]4(C)[C@H]3CC[C@]12C
[1]; Well no.=3603, low concentration screen
  remaining activity at 1.25 µM: 101%
[2]; Well no.=3603, high concentration screen
  remaining activity at 3.75 µM: 106%

## N#C/C(=C(/N)Sc1ccc(N)cc1)c1ccccc1C(F)(F)F
[1]; Well no.=2480, low concentration screen
  remaining activity at 1.25 µM: 98.7%
[2]; Well no.=2480, high concentration screen
  remaining activity at 3.75 µM: 98.3%

## C=C[C@]12CN(C)[C@@H]3[C@H]4CO[C@H](C[C@H]41)[C@]1(C(=O)Nc4ccccc41)[C@@H]32
[1]; Well no.=3460, low concentration screen
  remaining activity at 1.25 µM: 98%
[2]; Well no.=3460, high concentration screen
  remaining activity at 3.75 µM: 99%

## OC[C@@H]1[C@@H](O)[C@H](O)[C@H]2[C@@H](O)CCN21
[1]; Well no.=3085, low concentration screen
  remaining activity at 1.25 µM: 104%
[2]; Well no.=3085, high concentration screen
  remaining activity at 3.75 µM: 105%

## CC(CN1c2ccccc2Sc2ccccc21)N(C)C (stereo not shown)
[1]; Well no.=3844, low concentration screen
  remaining activity at 1.25 µM: 101%
[2]; Well no.=3844, high concentration screen
  remaining activity at 3.75 µM: 97.9%

## COc1cc2c3cc1Oc1c(OC)c(OC)cc4c1[C@@H](Cc1ccc(O)c(c1)Oc1ccc(cc1)C[C@@H]3N(C)CC2)N(C)CC4
[1]; Well no.=3633, low concentration screen
  remaining activity at 1.25 µM: 103%
[2]; Well no.=3633, high concentration screen
  remaining activity at 3.75 µM: 103%

## N[C@]1(C(=O)O)CC[C@H](C(=O)O)C1
[1]; Well no.=64, low concentration screen
  remaining activity at 1.25 µM: 102%
[2]; Well no.=64, high concentration screen
  remaining activity at 3.75 µM: 101%

## O=C1C[C@@H]2OCC=C3CN4CC[C@]56c7ccccc7N1[C@H]5[C@H]2[C@H]3C[C@H]46
[1]
  remaining activity at 1.25 µM: 94.4%
[2]
  remaining activity at 3.75 µM: 94.7%

## CC[C@H]1CN2CCc3cc(OC)c(OC)cc3[C@@H]2C[C@@H]1C[C@H]1NCCc2cc(O)c(OC)cc21
[1]; Well no.=3501, low concentration screen
  remaining activity at 1.25 µM: 96.1%
[2]; Well no.=3501, high concentration screen
  remaining activity at 3.75 µM: 88.7%

## CN1[C@@H](CC(=O)c2ccccc2)CCC[C@H]1C[C@H](O)c1ccccc1
[1]; Well no.=3438, low concentration screen
  remaining activity at 1.25 µM: 97.9%
[2]; Well no.=3438, high concentration screen
  remaining activity at 3.75 µM: 97.7%

## CN(C/C=C/C#CC(C)(C)C)Cc1cccc2ccccc12
[1]; Well no.=3894, low concentration screen
  remaining activity at 1.25 µM: 102%
[2]; Well no.=3894, high concentration screen
  remaining activity at 3.75 µM: 103%

## CC1(C)CCC2=C(O1)c1ccccc1C(=O)C2=O
[1]; Well no.=3375, low concentration screen
  remaining activity at 1.25 µM: 95.6%
[1]; Well no.=3845, low concentration screen
  remaining activity at 1.25 µM: 96.1%
[2]; Well no.=3375, high concentration screen
  remaining activity at 3.75 µM: 84.1%
[2]; Well no.=3845, high concentration screen
  remaining activity at 3.75 µM: 91.8%

## CC[C@H](CC[C@@H](C)[C@H]1CC[C@H]2[C@@H]3CC=C4C[C@@H](O)CC[C@]4(C)[C@H]3CC[C@]12C)C(C)C
[1]; Well no.=3416, low concentration screen
  remaining activity at 1.25 µM: 93.1%
[2]; Well no.=3416, high concentration screen
  remaining activity at 3.75 µM: 96.8%

## O=C(O)[C@H]1NCCC[C@H]1C(=O)O
[1]; Well no.=1161, low concentration screen
  remaining activity at 1.25 µM: 106%
[2]; Well no.=1161, high concentration screen
  remaining activity at 3.75 µM: 106%

## C[C@H]1CCC[C@H](O)CCCCCc2cc(O)cc(O)c2C(=O)O1
[1]; Well no.=3340, low concentration screen
  remaining activity at 1.25 µM: 91.6%
[2]; Well no.=3340, high concentration screen
  remaining activity at 3.75 µM: 94%

## COc1ccc2c3c1O[C@H]1C[C@@H](O)C=C[C@@]31CCN(C)C2
[1]; Well no.=3677, low concentration screen
  remaining activity at 1.25 µM: 98.7%
[2]; Well no.=3677, high concentration screen
  remaining activity at 3.75 µM: 103%

## C[n+]1cccc(C(=O)O)c1
[1]; Well no.=3390, low concentration screen
  remaining activity at 1.25 µM: 94.5%
[2]; Well no.=3390, high concentration screen
  remaining activity at 3.75 µM: 99.5%

## COC(=O)[C@@H]1[C@H]2C[C@H]3c4[nH]c5ccccc5c4CCN3C[C@@H]2CC[C@@H]1O
[1]; Well no.=3378, low concentration screen
  remaining activity at 1.25 µM: 86.8%
[2]; Well no.=1699, high concentration screen
  remaining activity at 3.75 µM: 103%
[2]; Well no.=3378, high concentration screen
  remaining activity at 3.75 µM: 87.3%

## O=C(O)CN(CCN(CC(=O)O)Cc1ccccc1O)Cc1ccccc1O
[1]; Well no.=3846, low concentration screen
  remaining activity at 1.25 µM: 106%
[2]; Well no.=3846, high concentration screen
  remaining activity at 3.75 µM: 103%

## Cc1cc(C(C)Nc2ccccc2)c2nc(N3CCOCC3)cc(=O)n2c1 (stereo not shown)
[1]; Well no.=2577, low concentration screen
  remaining activity at 1.25 µM: 101%
[2]; Well no.=2577, high concentration screen
  remaining activity at 3.75 µM: 101%

## C[N+]1(C)CCC[C@H]1C(=O)O
[1]; Well no.=3118, low concentration screen
  remaining activity at 1.25 µM: 107%
[2]; Well no.=3118, high concentration screen
  remaining activity at 3.75 µM: 105%

## O=c1ccn([C@@H]2O[C@@]3(CO)CO[C@@H]2[C@@H]3O)c(=O)[nH]1
[1]; Well no.=7864, low concentration screen
  remaining activity at 1.25 µM: 98.5%
[2]; Well no.=7864, high concentration screen
  remaining activity at 3.75 µM: 92.8%

## CCCN1CC[C@@H]2c3cc(O)ccc3CC[C@@H]21
[1]; Well no.=1044, low concentration screen
  remaining activity at 1.25 µM: 98.9%
[2]; Well no.=1044, high concentration screen
  remaining activity at 3.75 µM: 100%

## CC(C)=CC[C@@H](OC(=O)C=C(C)C)C1=CC(=O)c2c(O)ccc(O)c2C1=O
[1]; Well no.=3305, low concentration screen
  remaining activity at 1.25 µM: 89.6%
[2]; Well no.=3305, high concentration screen
  remaining activity at 3.75 µM: 85.3%

## CCN(CC)CCCC(C)Nc1nc(C)cc(Nc2ccc3nc(C)cc(N)c3c2)n1 (stereo not shown) [NSC 23766 (trihydrochloride)]
[1]; Well no.=7865, low concentration screen
  remaining activity at 1.25 µM: 98.1%

## Nc1[nH]nc2nc3ccccc3nc12 [NSC 693868 - 1H-Pyrazolo[3,4-b]quinoxalin-3-amine]
[1]; Well no.=2476, low concentration screen
  remaining activity at 1.25 µM: 95.5%

## CN(C)C(=O)Oc1cccc([N+](C)(C)C)c1 [Neostigmine bromide]
[1]; Well no.=853, low concentration screen
  remaining activity at 1.25 µM: 105%

## O=C1CCCN1CC#CCN1CCCC1 [Oxotremorine sesquifumarate salt]
[1]; Well no.=946, low concentration screen
  remaining activity at 1.25 µM: 103%

## COc1cc2nc(N3CCN(C(=O)c4ccco4)CC3)nc(N)c2cc1OC [Prazosin hydrochloride]
[1]; Well no.=1349, low concentration screen
  remaining activity at 1.25 µM: 98.8%

## CN(C)CCCN1c2ccccc2Sc2ccccc21 [Promazine (hydrochloride)]
[1]; Well no.=6711, low concentration screen
  remaining activity at 1.25 µM: 103%

## CC(CN1c2ccccc2Sc2ccccc21)N(C)C (stereo not shown) [Promethazine (hydrochloride)]
[1]; Well no.=6811, low concentration screen
  remaining activity at 1.25 µM: 99.3%

## CCCCC[C@H](O)/C=C/[C@@H]1[C@@H](C/C=C\CCCC(=O)O)[C@@H](O)C[C@H]1O [Prostaglandin F2a]
[1]; Well no.=3094, low concentration screen
  remaining activity at 1.25 µM: 107%

## Cc1cc2c(cc1Cl)N(C(=O)Nc1ccc(Oc3cccnc3C)nc1)CC2 [SB 242084]
[1]; Well no.=7137, low concentration screen
  remaining activity at 1.25 µM: 103%

## CC1(C)[C@H](C(=O)O)N2C(=O)C[C@H]2S1(=O)=O [Sulbactam]
[1]; Well no.=2023, low concentration screen
  remaining activity at 1.25 µM: 106%
[1]; Well no.=7450, low concentration screen
  remaining activity at 1.25 µM: 101%

## CC(=O)O[C@H]1C(=O)[C@@]2(C)[C@H]([C@H](OC(=O)c3ccccc3)[C@]3(O)C[C@H](OC(=O)[C@H](O)[C@@H](NC(=O)c4ccccc4)c4ccccc4)C(C)=C1C3(C)C)[C@]1(OC(C)=O)CO[C@@H]1C[C@@H]2O [Taxol]
[1]; Well no.=1180, low concentration screen
  remaining activity at 1.25 µM: 92.6%
[1]; Well no.=1999, low concentration screen
  remaining activity at 1.25 µM: 103%
[1]; Well no.=3180, low concentration screen
  remaining activity at 1.25 µM: 106%

## Cn1c(=O)c2nc[nH]c2n(C)c1=O [Theophylline]
[1]; Well no.=1235, low concentration screen
  remaining activity at 1.25 µM: 97.1%
[1]; Well no.=6249, low concentration screen
  remaining activity at 1.25 µM: 110%
[1]; Well no.=8277, low concentration screen
  remaining activity at 1.25 µM: 98.3%

Source: publication PMC8286840, “Identifying SARS-CoV-2 antiviral compounds by screening for small molecule inhibitors of Nsp3 papain-like protease” (Biochemical Journal, 2021)
